pEC50, pIC50: −log10 of the molar value. Values joined by “and” are separate entries in the source; they are usually repeats but may differ in a detail not shown here. Identical values can stand only once. Active and inactive are the calls of the source.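 The calls were made as follows: active = compounds giving half or more protection of infected cells from virus-caused growth loss, again on retest; inactive = the rest.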 Where a SMILES comes first, the peptide text is derived from it.
Test system: CEM cells HIV-1 protection, formazan growth assay
Test: NCI AIDS Antiviral Assay
Details: for pIC50: measured here: growth of uninfected CEM cells
Summary of the method: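 Protection of CEM cells against HIV-1 measured as cell growth via soluble formazan read-out, with five concentrations tested on both infected and uninfected cells; failure to protect may reflect toxicity.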

Row | SMILES | outcome | pEC50 | pIC50
1 | C=CCC(C)C(=O)CP1(=O)OC(C)CCN1C(C)(C)C (stereo not drawn) | inactive |  | 
2 | CS(=O)(=O)Nc1ccc2c(c1)N(S(C)(=O)=O)CC2CCl (stereo not drawn) |  | < 3.70 | 3.78
3 | Clc1cccc(-c2nc3cccc4c3n2Cc2ncccc2-4)c1 |  | < 3.70 | < 3.70
4 | CCOC(=O)CNC(=O)C(Cc1ccccc1)NC(=O)C(N)CC(=O)O (stereo not drawn) (H-Asp-Phe-Gly-OEt; configuration not given here) |  | < 3.70 | < 3.70
5 | C[N+]12CCC(c3ccccc3)(CC1)C(O)C2 (stereo not drawn) |  | < 3.08 | 3.13
6 | O=C1NC(O)c2cc(O)ccc2O1 (stereo not drawn) |  | < 3.70 | 4.09
7 | O=C(O)/C(=C/c1ccc([N+](=O)[O-])cc1)c1ccccc1 |  | < 3.31 | 4.02
8 | CCCCCc1c(CCCC)c(=O)[nH]c2cc(CNCC(OC)OC)ccc12 |  | < 3.70 | 4.96
9 | O=C(NCCCN(CCCCN(CCCNC(=O)C(F)(F)F)Cc1ccccc1)Cc1ccccc1)C(F)(F)F |  | < 3.70 | 4.43
10 | COc1ccc2oc(=N)c(C(N)=S)cc2c1 |  | < 3.70 | 4.57
11 | C(/C=C/N1CCCC1)=C\c1nc(N2CCCC2)c2ccccc2n1 |  | < 4.37 | 4.94
12 | CC(C)=CCC/C(C)=C/CCC1(C)C2COC(=O)C21 (stereo not drawn) |  | < 3.70 | 4.33
13 | COC(=O)c1nn(-c2ccc(Cl)cc2)c2nc3ccccc3c-2c1C(=O)OC |  | < 4.49 | < 4.49
14 | OC(c1ccoc1)c1cc2ccccc2s1 (stereo not drawn) |  | < 3.70 | 4.35
15 | CCC1C(=O)N(C)c2ccccc21 (stereo not drawn) |  | < 3.70 | 3.93 and 4.48
16 | COc1nc2ncc([C@@H](OC(C)=O)[C@@H](COC(C)=O)OC(C)=O)nc2c(=O)n1C |  | < 3.70 | < 3.70
17 | CCOC(=O)NC(Nc1ccc(OC(F)(F)F)cc1)(C(F)(F)F)C(F)(F)F |  | < 3.70 | 3.98
18 | Cc1nc2c(=O)n(C)c(=O)n(C)c2nc1CCC(=O)O |  | < 3.70 | < 3.70
19 | COC1=C(C)C(=O)C(=O)c2ccccc21 | inactive |  | 
20 | CC1CCCC2=C1C(=O)N(CSCN1C(=O)C3=C(C1=O)C(C)CCC3)C2=O (stereo not drawn) |  | < 3.70 | 3.85
21 | CCCCCCSc1nc(COC(=O)NC)c(COC(=O)NC)n1C |  | < 3.70 | < 3.70
22 | COc1ccc(C2=Nc3ccccc3SC(C)C2)cc1 (stereo not drawn) |  | < 4.88 | < 4.88

Row | SMILES | outcome | pEC50 | pIC50
23 | CC1(C)COC1(c1ccccc1)c1cccnc1 (stereo not drawn) |  | < 3.70 | 3.83
24 | C/C(=C\c1ccc([N+](=O)[O-])cc1)C(=O)O |  | < 3.76 | < 3.76
25 | CC(Cc1ccc2c(c1)OCO2)N(C)C(=O)C1=CCN(C)CC1 (stereo not drawn) |  | < 3.70 | < 3.70
26 | CCC/C(Cl)=N\OC(=O)Nc1ccc(OC(F)(F)F)cc1 |  | < 4.70 | 5.27
27 | O=[N+]([O-])c1ccc(Nc2ccc(Cl)cc2)c2nonc12 |  | < 4.36 | 4.82
28 | O=c1c(Cl)c(N2CCOCC2)cnn1-c1ccccc1 |  | < 3.63 | 3.68
29 | C=C(C)c1ccc2c(c1)C(=O)C[C@@H]1[C@](C)(C#N)CCC[C@]21C |  | < 3.70 | 4.35
30 | O=C1[C@@H]2C(c3ccc(Cl)cc3Cl)=NO[C@@H]2C(=O)N1c1ccc(Cc2ccc(N3C(=O)[C@H]4C(c5ccc(Cl)cc5Cl)=NO[C@H]4C3=O)cc2)cc1 |  | < 5.15 | < 5.15
31 | C[C@]12CCC3[C@@H](CC[C@@H]4c5nonc5CC[C@]34C)C1CCC2=O (stereo partly drawn) |  | < 4.24 | < 4.24
32 | COc1ccc(CN2CCCN(Cc3ccc(OC)cc3OC)C2c2cc(Cl)cc(Cl)c2O)c(OC)c1 |  | < 3.70 | 4.46
33 | COC(=O)C1=C(O)C(O)=C(C(=O)OC)CC1 |  | 3.33 | 3.04
34 | S=C(N/N=C(/c1ccccc1)c1ccccn1)Nc1ccccc1 |  | < 6.70 | 7.01
35 | CCCCCC1=CC(=O)C1(Cl)Cl |  | < 3.70 | 4.56
36 | O=C(O)c1ccc2c(c1)C(=O)N(c1ccc(S(=O)(=O)c3ccc(N4C(=O)c5ccc(C(=O)O)cc5C4=O)cc3)cc1)C2=O | inactive |  | 
37 | CCSc1nn(-c2c3ccccc3nc3ccccc23)c(=S)s1 |  | < 3.70 | 3.99
38 | COc1cc(Nc2nc3ccc(C(F)(F)F)cc3nc2C(=O)O)cc(OC)c1OC |  | < 3.70 | 4.56
39 | O=C1C(CN2CCOCC2)CCCC1CN1CCOCC1 (stereo not drawn) | inactive | < 2.37 | 5.87
40 | C1CCCN(NC2=NCCO2)CC1 |  | 4.03 | 3.00
41 | COc1cc(-c2oc(C=Nc3ccccc3)c([N+](=O)[O-])c2-c2ccc(O)c(OC)c2)ccc1O |  | < 3.70 | 5.12
42 | O=[N+]([O-])C1C2C=CC(C2)[C@H]1c1ccco1 (stereo partly drawn) | inactive |  | 
43 | CN(C)c1ccc(N=Nc2ccc3nc[nH]c3c2)cc1 |  | < 3.70 | 4.38
44 | CCc1c2cc(OC)c(OC)cc2cc2c3cc(OC)c(OC)cc3cc[n+]12 (tested in a mixture with another compound) |  | < 3.63 | 4.47

Row | SMILES | outcome | pEC50 | pIC50
45 | COc1cc(OCc2ccccc2)c(O)cc1-c1coc2cc(OCc3ccccc3)ccc2c1=O |  | < 3.70 | 5.37
46 | Cn1c(-c2cccs2)cc(-c2cccs2)c1-c1ccsc1 |  | < 4.70 | 4.95
47 | O=c1cc(CBr)c2ccc(O)cc2o1 |  | < 3.70 | 3.99
48 | CN1C(=O)C(C)(O)Sc2ccccc21 (stereo not drawn) |  | < 2.92 | 3.30
49 | OC[C@H]1N[C@H](CO)[C@@H](O)[C@H]1O |  | < 3.70 | 3.83
50 | Cn1cc(C(=O)/C(Cl)=C(\Cl)C(=O)O)c2ccccc21 | inactive |  | 
51 | COc1cccc(NC(=O)C(=O)C(C(=O)c2ccccc2F)C2OC(=O)c3ccccc32)c1 (stereo not drawn) |  | < 3.54 | 4.97
52 | Cc1cc(Br)cc(C)c1NC(=O)C(=O)C(C(=O)c1ccncc1)C1OC(=O)c2ccccc21 (stereo not drawn) |  | < 3.47 | < 3.47
53 | CC(=O)OC1COC(n2c3ccccc3c3ccc4c5ccccc5[nH]c4c32)C(OC(C)=O)C1OC(C)=O (stereo not drawn) |  | < 3.93 | 3.94
54 | CCN(CC)c1c(C)nnc2c(C)c(-c3ccccc3)nn12 |  | < 5.45 | < 5.45
55 | CCC1(CC)C(=O)[N-]C(=O)[N-]C1=O.[Au+].[Au+].c1ccc([PH+](c2ccccc2)c2ccccc2)cc1.c1ccc([PH+](c2ccccc2)c2ccccc2)cc1 |  | < 5.18 | < 5.18
56 | Cn1c(=O)c2nc3c(=O)n(C)c(=O)n(C)c3nc2n(C)c1=O |  | < 3.70 | 4.10
57 | N#C/C(=C\c1cc(O)c(O)c(O)c1)C(=O)NCCCNC(=O)/C(C#N)=C/c1cc(O)c(O)c(O)c1 |  | < 3.88 | 4.67
58 | CCSC(SCC)=C1C(=O)N(c2ccccc2)N=C1C |  | < 4.35 | < 4.35
59 | CCOC(=O)NN(CCOS(=O)(=O)c1ccc(C)cc1)CCOS(=O)(=O)c1ccc(C)cc1 |  | < 3.70 | 3.92
60 | CCC(=O)NC(C(=O)NC(C(=O)NC(CC(C)C)C(O)CC(=O)NC(C)C(=O)NC(CC(C)C)C(O)CC(=O)O)C(C)C)C(C)C (stereo not drawn) |  | < 5.12 | < 5.12
61 | O=c1oc2ccccc2c(O)c1C(C/C(CCN1CCCC1)=N/O)c1ccccc1 (stereo not drawn) |  | < 4.37 | < 4.37
62 | N#C/C(C(=O)Nc1ccccc1)=C(/N)N1CCCCC1 |  | < 3.70 | < 3.70
63 | CCC(=O)C1(c2cccc(OC)c2)CCN(C)CC1 |  | < 3.08 | 3.34
64 | CSc1nc2[nH]c(=O)n(OS(=O)(=O)c3ccccc3)c(=O)c2n1C |  | < 3.70 | 3.94
65 | C=C1CC[N+]2(CCCCCC)CCCC12 (stereo not drawn) |  | < 3.06 | 3.90
66 | C=C[C@H]1C=Cc2c(OC)cccc2[C@@H]1COP1(=S)NC(C)C(c2ccccc2)O1 (stereo partly drawn) | inactive |  | 

Row | SMILES | outcome | pEC50 | pIC50
67 | CCOC(=O)C(=Cc1cc(OC)ccc1OC)C(=O)OCC |  | < 3.93 | 4.74
68 | CC1CN1c1c(C(=O)/C=C/c2ccc(F)cc2)c(-c2ccccc2)nn(C)c1=O (stereo not drawn) |  | < 3.92 | 4.96
69 | O=C1NC(=Nc2ccccc2Cl)SC1C(=O)Nc1ccc([N+](=O)[O-])cc1[N+](=O)[O-] (stereo not drawn) |  | < 3.94 | < 3.94
70 | C[C@H](NS(=O)(=O)c1ccc(NC(=O)c2ccccc2)cc1)C(=O)O | inactive |  | 
71 | Cc1ccccc1-n1c(=O)sc2c(=O)n(-c3ccccc3)c(=S)[nH]c21 |  | < 5.55 | < 5.55
72 | C=C1CC(Cn2ccc(=O)[nH]c2=O)(c2ccc(OC)cc2)OC1=O (stereo not drawn) |  | < 3.70 | 5.56
73 | CC1(C)CC(=O)C(C=NC(=O)c2ccncc2)=C(O)C1 |  | 4.00 | < 3.70
74 | COc1ccc(C2OCC3OC(n4cc(C)c(=O)[nH]c4=O)C[C@H]3N2OC(C)=O)cc1 (stereo partly drawn) | inactive |  | 
75 | COc1ccc(N2C(=O)C3c4[nH]c5cccc(C)c5c4C4CCC(C(C)(C)C)CC4C3C2=O)cc1 (stereo not drawn) |  | < 3.70 | 4.05
76 | CCCCCCCCC1=C(OC)C(=O)c2ccc(Cl)nc2C1=O | inactive |  | 
77 | Cc1cc(O)cc(O)c1N=Nc1ccc([N+](=O)[O-])cc1 |  | < 3.70 | 5.46
78 | OC1(C#CCN2CCCC2)c2ccccc2Sc2ccccc21.[C-]#[O+].[C-]#[O+].[C-]#[O+].[C-]#[O+].[C-]#[O+].[C-]#[O+].[Co].[Co] |  | < 3.70 | 5.38
79 | O=C(NC(Nc1ccc(F)c(Cl)c1)(C(F)(F)F)C(F)(F)F)OCc1ccccc1 |  | < 3.70 | 4.51
80 | COc1ccccc1NC(=S)N/C=C(\C#N)C(=O)c1ccc2ccccc2c1 |  | < 3.70 | 4.43
81 | Cn1c(O)c(N=Nc2ccccc2[N+](=O)[O-])c2ccccc21 |  | < 3.70 | < 3.70
82 | C[C@@H]1CC(=O)C2CCCC1C2=O (stereo partly drawn) | inactive |  | 
83 | COC(=O)c1ccc2n[se]nc2c1 | inactive |  | 
84 | CCN1C(=O)C(=O)OC1=C(c1ccccc1)c1ccccc1 | inactive |  | 
85 | COc1c2c(cc3ccc(=O)oc13)C(Cl)C(Cl)O2 (stereo not drawn) |  | < 4.11 | 4.66
86 | C/C=C/C[P+](c1ccccc1)(c1ccccc1)c1ccccc1 |  | < 3.70 | 5.83 and 5.88
87 | Cc1cc2c(cc1O)CC[C@@H]1[C@@H]2CC[C@]2(C)[C@@H](O)CC[C@@H]12 |  | < 3.70 | 5.39
